From patent publication US7300546B2, “Cellulose fiber having improved biostability and the resulting products” (Weyerhaeuser Company, priority 2000, dated 2007)

Tested on: cellulose fungal decay
Test: Inground testing of cement-treated pulp sheets, subjective visual rating for deterioration (biodurability)
Design: species or system fungi
Conditions: for biological protection: summary statement in Example 2
Method: Samples for testing were prepared by obtaining unbleached mixed conifer kraft pulp sheets produced in an interior British Columbia mill. […] Solutions of various biocides were made up so that the desired ultimate concentration of active material would be obtained by spraying each sample portion of pulp sheet with about 1 g of the biocidal solution per gram of pulp. […] Subsequently the treated sheets were reslurried in water having a pH ˜12 obtained from a cement board manufacturing facility and refined to a Canadian Standard Freeness (CSF) level of 450 mL. All refining was done in a pilot scale Model 202 Claflin refiner (available from Bolton-Emerson, Inc., Lawrence, Mass.). The treated and refined pulp was dewatered by centrifuging to a consistency of about 30% and then pin fluffed to ensure uniformity.
Treatments included copper sulfate at concentrations of 0.1, 0.3, and 0.5% Cu w/w based on dry pulp; zinc sulfate at concentrations of 0.1%, 0.3%, and 0.6% Zn; 0.2% propiconazole emulsion; didecyldimethylammonium chloride (DDAC) 0.2%, 0.5%; and 1.0%, and 1.0% DDAB. Treated fibers were also made using 1.0% DDAC with 0.05%, 0.10%, and 0.2% Cu added as copper sulfate. All concentrations are on a weight/weight basis.
Samples of 30 g of the treated pulps were reslurried in water and formed into sheets in an 8×8 inch (203×203 mm) sheet. The sheets were pressed to remove excess moisture then air dried. Each sheet was then cut in half and dipped for 30 seconds in a slurry of one part Portland cement in three parts by weight water. The coated and impregnated sheets were removed and drained, allowed to cure for two days wet, and then air dried. Each 4×8 inch ([…] mm) cement treated sheet was then enclosed in a 20 mesh stainless steel screen and half buried in the ground at a test site at Hilo, Hi. Samples were then removed after three month, six month, nine month, and twelve month periods for examination. Exposed sheets were assigned a subjective rating for deterioration based on visual observation (3=sound and 0=complete deterioration). The exposed sheets were also examined microscopically to determine the presence of fungal mycelium and cell wall deterioration. […] 1

SMILES: CCCCCCCCCC[N+](C)(C)CCCCCCCCCC.[Br-] [DDAB, didecyldimethylammonium bromide]
- below ground protection (DDAB at 1% (lower concentrations not tested)): effective below ground protection

SMILES: CCCCCCCCCC[N+](C)(C)CCCCCCCCCC.[Cl-] [DDAC, didecyldimethylammonium chloride]
- below ground protection (DDAC at 0.5% or greater): effective below ground protection

SMILES: O=S(=O)([O-])[O-].[Zn+2] [Zinc compounds, zinc sulfate]
- decay protection (at any concentration tested): did not give effective decay protection
- biological protection: poor

SMILES: O=S(=O)([O-])[O-].[Cu+2] [copper, copper sulfate]
- reducing cellulose fungal decay (after the one year underground tests): effective in reducing cellulose fungal decay
- below ground protection (copper at concentrations of 0.3% or greater): effective below ground protection

SMILES: CCCC1COC(Cn2cncn2)(c2ccc(Cl)cc2Cl)O1 (centres unmarked) [propiconazole]
- decay protection (at 0.2%): did not give effective decay protection
- biological protection: poor
